Experimental data: ChEMBL document CHEMBL1128928, “Synthesis and biological properties of partially modified retro and retro-inverso pseudo peptides of arg-gly-asp (RGD)” (Bioorg Med Chem Lett, 1996)

How the values were obtained:
Assay type in all cases: functional
Homo sapiens [1] = organism: Homo sapiens; test: Compound was evaluated for inhibition of ADP-induced human platelet aggregation at concentration 1 mg/mL.
B16 [2] = test: Compound was evaluated for lung metastasis produced by 500 ug/mouse i.v. injection of B16-BL6 melanoma.; Range 44-154
B16 [3] = test: Compound was evaluated for lung metastasis produced by 500 ug/mouse i.v. injection of B16-BL6 melanoma,; Range 19-63
B16 [4] = test: Compound was evaluated for lung metastasis produced by 500 ug/mouse i.v. injection of B16-BL6 melanoma. Range 4-36
Homo sapiens [5] = organism: Homo sapiens; test: Compound was evaluated for inhibition of ADP-induced human platelet aggregation.

With N=C(N)NCCC[C@H](N)C(=O)NCC(=O)N[C@@H](CC(=O)O)C(=O)N[C@@H](CO)C(=O)O the inhibition at 1000 µg/mL (Homo sapiens [1]) was 100% and the “No. of lung metastasis” value (B16 [2]) was 93.
In the case of N=C(N)NCCC[C@@H](NC(=O)CC(=O)N[C@@H](CC(=O)O)C(=O)O)C(=O)O, the inhibition at 1000 µg/mL (Homo sapiens [1]) is reported as 53% and the “No. of lung metastasis” value (B16 [3]) is reported as 38.
N=C(N)NCCC[C@H](NC(=O)CC(=O)N[C@@H](CC(=O)O)C(=O)O)C(=O)O was tested, and the “No. of lung metastasis” value (B16 [4]) was 19, the inhibition at 1000 µg/mL (Homo sapiens [1]) was 57% and the IC50 (Homo sapiens [5]) was 2400 µM.
